The subject of experiment [1] is E. coli isolate 14 (qepA). The experiment is described as follows: Cross-resistance MIC assay, clinical isolate. To be noted: resistance QL, protocol as section 5 (CAMHB; there µg mL-1), unit not given in Table S5. The arrangement: unit not given beside the values.
Experiment [2] concerns E. coli isolate 13 (RMT-C). The experiment is described as follows: Cross-resistance MIC assay, clinical isolate. The arrangement: unit not given beside the values. The note with it: resistance AG, protocol as section 5 (CAMHB; there µg mL-1), unit not given in Table S5.
For experiment [3], the system named is E. coli isolate 16 (QnrS1). Briefly: Cross-resistance MIC assay, clinical isolate. To be noted: E. coli isolate 16, QnrS1, resistance QL; protocol as section 5 (CAMHB; there µg mL-1); unit not given in Table S5. The arrangement: unit not given beside the values.
For experiment [4], the system named is E. coli isolate 1 (CTX-M-1). Briefly: Cross-resistance MIC assay, clinical isolate. Set-up: unit not given beside the values. The note with it: E. coli isolate 1, CTX-M-1, resistance ESBL; protocol as section 5 (CAMHB; there µg mL-1); unit not given in Table S5.
Experiment [5] has as its system E. coli isolate 15 (qnrA1). The experiment is described as follows: Cross-resistance MIC assay, clinical isolate. The arrangement: unit not given beside the values. The note with it: E. coli isolate 15, qnrA1, resistance QL; protocol as section 5 (CAMHB; there µg mL-1); unit not given in Table S5.
Experiment [6] relates to E. coli isolate 10 (OXA-48+CTX-M-15). The experiment is described as follows: Cross-resistance MIC assay, clinical isolate. The experiment is classed as cell-based. The note with it: E. coli isolate 10, OXA-48+CTX-M-15, resistance ESBL-CP; protocol as section 5 (CAMHB; there µg mL-1); unit not given in Table S5. The method, then: (§1) 5. Determination of the minimal inhibitory concentration (MIC) in vitro The MIC of Corramycin was evaluated following the Clinical & Laboratory Standard Institute (CLSI; https://clsi.org) and EUCAST (https://eucast.org) guidelines. First, inoculi of the bacterial test strains were prepared by culturing isolated colonies in cation-adjusted Müller Hinton broth (CAMHB; 2 g L-1 beef infusion solids, 1.5 g L-1 starch, 17.5 g L-1 casein hydrolysates, final pH 7.4) at 37 °C and 180 rpm for 18 h. Next, Corramycin, which was dissolved in DMSO, was transferred into the first row of a 96-well plate to reach an end concentration of 64 µg mL-1 (in 100 µL total volume). A 1:1 serial dilution in cation-adjusted Mueller Hinton broth (CAMHB) of the test compound was done from the top row to the bottom […]
(§2) the respective test strains were transferred into the wells, reaching a total volume of 100 µL and 5x10^5 colony-forming units (CFU) mL-1. After a 20 to 22 h of incubation, the optical density was evaluated on a microplate reader and the MIC endpoint was determined as the lowest concentration of antibiotic at which there was no visible growth observed. Each MIC experiment was performed in duplicates. Table […]
(§3) (1 picture or pasted object on this page, not shown here)
(§4) 6. Investigation of the cross-resistance of Corramycin to clinically used antibiotics […]
(§5) of the MIC according to the protocol described in the previous section. The MIC of the respective antibiotics against 16 clinical isolate E. coli strains, which were obtained from P. Nordmann’s collection and were classified Carbapenem-resistant, Aminoglycoside-resistant or Quinolone-resistant, was […]
(§6) extended-spectrum β-lactamase; CP: carbapenem; AG: aminoglycoside; QL: quinolone; PRP

Experiment [7] deals with E. coli isolate 7 (IMP-4). The experiment is described as follows: Cross-resistance MIC assay, clinical isolate. The note with it: E. coli isolate 7, IMP-4, resistance ESBL-CP; protocol as section 5 (CAMHB; there µg mL-1); unit not given in Table S5. The experiment is classed as cell-based. The method, then:
as §1, §2, §3, §4, §5, §6

The test system of experiment [8] is E. coli isolate 6 (IMP-1). The experiment is described as follows: Cross-resistance MIC assay, clinical isolate. Type of experiment: cell-based. To be noted: E. coli isolate 6, IMP-1, resistance ESBL-CP; protocol as section 5 (CAMHB; there µg mL-1); unit not given in Table S5. The method, then:
as §1, §2, §3, §4, §5, §6

Experiment [9] concerns E. coli isolate 11 (RMT-B). The experiment is described as follows: Cross-resistance MIC assay, clinical isolate. Type of experiment: cell-based. The note with it: resistance AG, protocol as section 5 (CAMHB; there µg mL-1), unit not given in Table S5. How it is done:
as §1, §2, §3, §4, §5, §6

In experiment [10] the test system is E. coli isolate 5 (TEM-3). Type of experiment: cell-based. Set-up: unit not given beside the values. To be noted: E. coli isolate 5, TEM-3, resistance ESBL; protocol as section 5 (CAMHB; there µg mL-1); unit not given in Table S5. The method, then: as §1, §2, §3, §4, §5, §6
Experiment [11] deals with E. coli isolate 8 (KPC-2+TEM-1+OXA-9). Briefly: Cross-resistance MIC assay, clinical isolate. Set-up: unit not given beside the values. To be noted: E. coli isolate 8, KPC-2+TEM-1+OXA-9, resistance ESBL-CP; protocol as section 5 (CAMHB; there µg mL-1); unit not given in Table S5.
Experiment [12] has as its system E. coli isolate 9 (OXA-48). The experiment is described as follows: Cross-resistance MIC assay, clinical isolate. Set-up: unit not given beside the values. The note with it: E. coli isolate 9, OXA-48, resistance ESBL-CP; protocol as section 5 (CAMHB; there µg mL-1); unit not given in Table S5.
The test system of experiment [13] is E. coli isolate 4 (SHV-2a). Briefly: Cross-resistance MIC assay, clinical isolate. The arrangement: unit not given beside the values. To be noted: resistance ESBL, protocol as section 5 (CAMHB; there µg mL-1), unit not given in Table S5.
In experiment [14] the test system is E. coli isolate 2 (CTX-M-2). The experiment is described as follows: Cross-resistance MIC assay, clinical isolate. The note with it: E. coli isolate 2, CTX-M-2, resistance ESBL; protocol as section 5 (CAMHB; there µg mL-1); unit not given in Table S5. The arrangement: unit not given beside the values. Type of experiment: cell-based. How it is done: as §1, §2, §3, §4, §5, §6

Experiment [15] has as its system E. coli isolate 3 (OXA-30). The experiment is described as follows: Cross-resistance MIC assay, clinical isolate. The experiment is classed as cell-based. Set-up: unit not given beside the values. To be noted: E. coli isolate 3, OXA-30, resistance ESBL-CP; protocol as section 5 (CAMHB; there µg mL-1); unit not given in Table S5. How it is done:
as §1, §2, §3, §4, §5, §6

Experiment [16] deals with E. coli isolate 12 (ARM-A). The experiment is described as follows: Cross-resistance MIC assay, clinical isolate. The arrangement: unit not given beside the values. The note with it: resistance AG, protocol as section 5 (CAMHB; there µg mL-1), unit not given in Table S5.

Values after ≈ are worked out from the molar mass of the structure shown. Bounds are passed on as bounds.

Take `CO/N=C(\C(=O)N[C@@H]1C(=O)N2C(C(=O)O)=C(COC(C)=O)CS[C@H]12)c1csc(N)n1` [Cefotaxim]: the MIC in experiment [1] was over 64; in [2], over 64; in [3] it was over 64; in experiment [4], over 64; in experiment [5] it was 32; in [6], over 64 µg/mL. The MIC in experiment [7] is over 64 µg/mL; in experiment [8], 0.25 µg/mL (≈ 0.549 µM); in experiment [9] it was over 64 µg/mL; in [10], 64; in experiment [11], over 64; in [12] it was over 64. Besides, the MIC in experiment [13] is 64; in experiment [14], 64; in [15], 1; in experiment [16], over 64.
As for `CO[C@@]1(NC(=O)Cc2cccs2)C(=O)N2C(C(=O)O)=C(COC(N)=O)CS[C@@H]21` [Cefoxitin], the MIC in experiment [1] is 8; in [2], over 64; in [3], 8; in experiment [4], 8; in [5] it was 8; in experiment [6] it was 16 µg/mL (≈ 37.4 µM). In addition, the MIC in experiment [7] was over 64 µg/mL; in [8] it was 16 µg/mL (≈ 37.4 µM); in experiment [9], 16 µg/mL (≈ 37.4 µM); in experiment [10], 4; in [11], 64; in [12] it was 16. For the same compound, the MIC is on record as 4 in [13], 4 in [14], 4 in experiment [15] and 8 in experiment [16].
`CO[C@H]1/C=C/O[C@@]2(C)Oc3c(C)c(O)c4c(O)c(c(/C=N/N5CCN(C)CC5)c(O)c4c3C2=O)NC(=O)/C(C)=C\C=C\[C@H](C)[C@H](O)[C@@H](C)[C@@H](O)[C@@H](C)[C@H](OC(C)=O)[C@@H]1C` [Rifampicin]: the MIC in experiment [5] is over 64; in experiment [6] it was 16 µg/mL (≈ 19.4 µM); in [7], 16 µg/mL (≈ 19.4 µM); in experiment [8] it was 16 µg/mL (≈ 19.4 µM); in [9], 16 µg/mL (≈ 19.4 µM); in [10], 16. For the same compound, the MIC in experiment [12] is on record as 64; in experiment [13], 16; in experiment [16] it was over 64.
Turning to `CN(C)[C@@H]1C(O)=C(C(N)=O)C(=O)[C@@]2(O)C(O)=C3C(=O)c4c(O)cccc4[C@@](C)(O)[C@H]3C[C@@H]12` [Tetracyclin], the MIC stood at 4 in experiment [1], 4 in [5] and 32 in experiment [14].
Turning to `NC[C@H]1O[C@H](O[C@H]2[C@H](O)[C@@H](O[C@H]3O[C@H](CO)[C@@H](O)[C@H](N)[C@H]3O)[C@H](N)C[C@@H]2N)[C@H](N)C[C@@H]1O` [Tobramycin], the MIC in experiment [1] is 0.5; in experiment [2] it was over 64; in [3], 32; in experiment [4] it was 2; in experiment [5], 32; in experiment [6] it was 1 µg/mL (≈ 2.14 µM). Besides, the MIC in experiment [7] is 16 µg/mL (≈ 34.2 µM); in experiment [8], 2 µg/mL (≈ 4.28 µM); in experiment [9], 1 µg/mL (≈ 2.14 µM); in experiment [10], 16; in [11] it was 8; in experiment [12] it was 32. For the same compound, the MIC in [13] is on record as 32; in experiment [14], 2; in experiment [15] it was 2; in experiment [16], over 64.

The values are drawn from PMC10099666, “Structure Elucidation, Total Synthesis, Antibacterial In Vivo Efficacy and Biosynthesis Proposal of Myxobacterial Corramycin” (Angewandte Chemie (International Ed. in English), 2022).
